Experiments:
Type in all cases: in vivo
[1] = tested on: Ryegrass; experiment: Pre-emergence herbicidal activity (Example 31); set-up: key: 0-3 scale: 0 = 0-25% damage, 3 = 75-99% kill, 3+ = 100% kill; conditions: after three weeks
In short: (§1)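 Visual damage score at three weeks: 0 = 0–25% damage, 3 = 75–99% kill, 3+ = 100% kill. Soil boxes with seeds sown 2 cm deep were sprayed before emergence with water-diluted emulsifiable concentrate or suspension, then grown in a glasshouse alongside unsprayed controls.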

[2] = tested on: Wheat; experiment: Pre-emergence herbicidal activity (Example 31); set-up: key: 0-3 scale: 0 = 0-25% damage, 3 = 75-99% kill, 3+ = 100% kill; conditions: after three weeks
In short: as §1

[3] = tested on: Ipomea; experiment: Pre-emergence herbicidal activity (Example 31); conditions: after three weeks
In short: as §1

[4] = tested on: Japanese millet; experiment: Pre-emergence herbicidal activity (Example 31); conditions: after three weeks
In short: as §1

[5] = tested on: Mustard; experiment: Pre-emergence herbicidal activity (Example 31); conditions: after three weeks
In short: as §1

[6] = tested on: Sunflower; experiment: Pre-emergence herbicidal activity (Example 31); conditions: after three weeks
In short: as §1

[7] = tested on: Wheat; experiment: Post-emergence herbicidal activity (Example 32); set-up: key: 0-3 scale: 0 = 0-25% damage, 3 = 75-99% kill, 3+ = 100% kill; conditions: 3 weeks after spraying
In short: (§2)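 Compounds were formulated as emulsifiable concentrates in toluene with surfactants (oils, waxy solids) or ball-milled aqueous suspensions (crystalline solids), then diluted with water. Glasshouse seedlings in soil, grown to about 10 to 12.5 cm, were sprayed. Damage was scored visually after 3 weeks against untreated controls on a 0–3 scale (3+ = 100% kill).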

[8] = tested on: Ipomea; experiment: Post-emergence herbicidal activity (Example 32); conditions: 3 weeks after spraying
In short: as §2

[9] = tested on: Japanese millet; experiment: Post-emergence herbicidal activity (Example 32); conditions: 3 weeks after spraying
In short: as §2

[10] = tested on: Ryegrass; experiment: Post-emergence herbicidal activity (Example 32); conditions: 3 weeks after spraying
In short: as §2

[11] = tested on: Sunflower; experiment: Post-emergence herbicidal activity (Example 32); conditions: 3 weeks after spraying
In short: as §2

[12] = tested on: Annual Rye Grass; experiment: Selective herbicidal activity, seed boxes (Example 34); conditions: weed; 0.15 kg/ha; sprayed on one week old seedlings; 29 days after spraying; triplicate
Source text: (§3) The seeds of the test species were sprinkled onto . the surface of soil in seed boxes and covered with a thin layer of sand. The boxes were lightly watered with an overhead spray and placed in a glasshouse for one week to permit germination of the seeds and plant growth to a height of 4 to 5 inches. […] For comparison purposes at least one box containing one week old seedlings was sprayed lightly with water only. After spraying the boxes were returned to the glasshouse for a further 29 days after which the effect of the treatment was visually assessed.

[13] = tested on: Cotton; experiment: as above; conditions: crop; 1.5 kg/ha; sprayed on one week old seedlings; 29 days after spraying; triplicate
Source text: as §3

[14] = tested on: Japanese millet; experiment: as above; conditions: weed; 0.15 kg/ha; sprayed on one week old seedlings; 29 days after spraying; triplicate
Source text: as §3

[15] = tested on: Setaria aviceps; experiment: as above; conditions: weed; 0.15 kg/ha; sprayed on one week old seedlings; 29 days after spraying; triplicate
Source text: as §3

[16] = tested on: Sorghum halepense; experiment: as above; conditions: weed; 0.15 kg/ha; sprayed on one week old seedlings; 29 days after spraying; triplicate
Source text: as §3

[17] = tested on: Soyabean; experiment: as above; conditions: crop; 1.5 kg/ha; sprayed on one week old seedlings; 29 days after spraying; triplicate
Source text: as §3

[18] = tested on: Wild Oats; experiment: as above; conditions: weed; 0.15 kg/ha; sprayed on one week old seedlings; 29 days after spraying; triplicate
Source text: as §3

[19] = tested on: Maize; experiment: Pre-emergence herbicidal test, fibre trays (Example 33); set-up: key: 0 = 0-20% damage, 5 = complete kill, vs untreated control; conditions: 2.0 kg/ha, after 21 days
Method: (§4) The compounds were formulated for test by mixing an appropriate amount with 5 ml of an emulsion prepared by diluting 160 ml of a solution containing 21.S g per litre of "Span" 80 and 78.2 g per litre of "Tween" 20 in methylcyclohexanone to 500 ml with water. "Span" 80 is a Trade Mark for a surface-active agent comprising sorbitan monolaurate. "Tween" 20 is a Trade Mark for a surface-active agent comprising a condensate of sorbitan monolaurate with 20 molar proportions of ethylene oxide. Each 5 ml emulsion containing a test compound was'then diluted to 40 ml with water and sprayed on to young pot plants (post-emergence test) of the species named in Table 5 below. Damage to test plants was assessed after 14 days on a scale of 0 to 5 where 0 is 0 to 20% damage and 5 is complete kill. In a test for pre-emergence herbicidal activity, seeds of the test plants were sown in a shallow slit formed in the surface of soil in fibre trays. The surface was then levelled and sprayed, and fresh soil then spread thinly over the sprayed surface. Assessment of herbicidal damage was carried out after 21 days using the same scale of 0 to 5 as the post-emergence test. In both cases the degree of herbicidal damage was assessed by comparison with untreated control plants. A dash (-) means that no experiment was carried out.

[20] = tested on: Rice; experiment: as above; conditions: 2.0 kg/ha, after 21 days
Method: as §4

[21] = tested on: Amaranthus retroflexus; experiment: as above; conditions: 2.0 kg/ha, after 21 days
Method: as §4

[22] = tested on: Chenopodium album; experiment: as above; conditions: 2.0 kg/ha, after 21 days
Method: as §4

[23] = tested on: Cotton; experiment: as above; conditions: 2.0 kg/ha, after 21 days
Method: as §4

[24] = tested on: Ipomea purpurea; experiment: as above; conditions: 2.0 kg/ha, after 21 days
Method: as §4

[25] = tested on: Polygonum aviculare; experiment: as above; conditions: 2.0 kg/ha, after 21 days
Method: as §4

[26] = tested on: Rape; experiment: as above; conditions: 2.0 kg/ha, after 21 days
Method: as §4

[27] = tested on: Senecio vulgaris; experiment: as above; conditions: 2.0 kg/ha, after 21 days
Method: as §4

[28] = tested on: Soy bean; experiment: as above; conditions: 2.0 kg/ha, after 21 days
Method: as §4

[29] = tested on: Sugar beet; experiment: as above; conditions: 2.0 kg/ha, after 21 days
Method: as §4

[30] = tested on: Winter wheat; experiment: as above; conditions: 2.0 kg/ha, after 21 days
Method: as §4

[31] = tested on: Maize; experiment: Post-emergence herbicidal test, young pot plants (Example 33); conditions: 2.0 kg/ha, after 14 days
Method: as §4

[32] = tested on: Rice; experiment: as above; conditions: 2.0 kg/ha, after 14 days
Method: as §4

[33] = tested on: Winter wheat; experiment: as above; set-up: key: 0 = 0-20% damage, 5 = complete kill, vs untreated control; conditions: 2.0 kg/ha, after 14 days
Method: as §4

[34] = tested on: Amaranthus retroflexus; experiment: as above; conditions: 2.0 kg/ha, after 14 days
Method: as §4

[35] = tested on: Chenopodium album; experiment: as above; conditions: 2.0 kg/ha, after 14 days
Method: as §4

[36] = tested on: Cotton; experiment: as above; conditions: 2.0 kg/ha, after 14 days
Method: as §4

[37] = tested on: Ipomea purpurea; experiment: as above; conditions: 2.0 kg/ha, after 14 days
Method: as §4

[38] = tested on: Polygonum aviculare; experiment: as above; conditions: 2.0 kg/ha, after 14 days
Method: as §4

[39] = tested on: Rape; experiment: as above; conditions: 2.0 kg/ha, after 14 days
Method: as §4

[40] = tested on: Soy bean; experiment: as above; conditions: 2.0 kg/ha, after 14 days
Method: as §4

[41] = tested on: Sugar beet; experiment: as above; conditions: 2.0 kg/ha, after 14 days
Method: as §4

CC(Oc1ccc(Nc2ccc(C(F)(F)F)cc2[N+](=O)[O-])cc1)C(=O)O (stereo not shown) [Compound 46, 2[4-(2-Nitro-4-trifluoromethylanilino)phenoxy]-propionic acid]
damage to plants, Rg ([1]; 1 kg/ha): 2 | damage to plants, Rg ([1]; 5 kg/ha): 3+ (3+ represents 100% kill) | damage to plants, Wh ([2]; 1 kg/ha): 0 (0 represents from 0 to 25% damage) | damage to plants, Wh ([2]; 5 kg/ha): 2 | damage to plants, Ip ([3]; 1 kg/ha): 0 (0 represents from 0 to 25% damage) | damage to plants, Ip ([3]; 5 kg/ha): 0 (0 represents from 0 to 25% damage) | damage to plants, Jm ([4]; 1 kg/ha): 3 (3 represents 75 to 99% kill) | damage to plants, Jm ([4]; 5 kg/ha): 3+ (3+ represents 100% kill) | damage to plants, Ms ([5]; 1 kg/ha): 0 (0 represents from 0 to 25% damage) | damage to plants, Ms ([5]; 5 kg/ha): 0 (0 represents from 0 to 25% damage) | damage to plants, Sf ([6]; 1 kg/ha): 0 (0 represents from 0 to 25% damage) | damage to plants, Sf ([6]; 5 kg/ha): 0 (0 represents from 0 to 25% damage) | damage to plants, Wh ([7]; 1 kg/ha): 2 | damage to plants, Wh ([7]; 5 kg/ha): 3+ (3+ represents 100% kill) | damage to plants, Ip ([8]; 1 kg/ha): 0 (0 represents 0 to 25% damage) | damage to plants, Ip ([8]; 5 kg/ha): 0 (0 represents 0 to 25% damage) | damage to plants, Jm ([9]; 1 kg/ha): 3+ (3+ represents 100% kill) | damage to plants, Jm ([9]; 5 kg/ha): 3+ (3+ represents 100% kill) | damage to plants, Rg ([10]; 1 kg/ha): 3+ (3+ represents 100% kill) | damage to plants, Rg ([10]; 5 kg/ha): 3+ (3+ represents 100% kill) | damage to plants, Sf ([11]; 1 kg/ha): 0 (0 represents 0 to 25% damage) | damage to plants, Sf ([11]; 5 kg/ha): 2 | percentage damage, Rg [12]: 55 percentage | percentage damage, Ct [13]: 50 percentage | percentage damage, Jm [14]: 85 percentage | percentage damage, St [15]: 55 percentage | percentage damage, Sh [16]: 88 percentage | percentage damage, Sb [17]: 38 percentage | percentage damage, Ot [18]: 50 percentage

COC(=O)C(C)Oc1ccc(Nc2ccc(C(F)(F)F)cc2[N+](=O)[O-])cc1Cl (stereo not shown) [Compound 116]
herbicidal damage, Mz [19]: 3 | herbicidal damage, Rc [20]: 4 | herbicidal damage, Am [21]: 0 (0 is 0 to 20% damage) | herbicidal damage, Ca [22]: 0 (0 is 0 to 20% damage) | herbicidal damage, Ct [23]: 0 (0 is 0 to 20% damage) | herbicidal damage, Ip [24]: 0 (0 is 0 to 20% damage) | herbicidal damage, Pi [25]: 0 (0 is 0 to 20% damage) | herbicidal damage, Rp [26]: 0 (0 is 0 to 20% damage) | herbicidal damage, Sn [27]: 0 (0 is 0 to 20% damage) | herbicidal damage, Sy [28]: 0 (0 is 0 to 20% damage) | herbicidal damage, Sb [29]: 0 (0 is 0 to 20% damage) | herbicidal damage, Ww [30]: 4 | damage to test plants, Mz [31]: 4 | damage to test plants, Rc [32]: 4 | damage to test plants, Ww [33]: 4 | damage to test plants, Am [34]: 0 (0 is 0 to 20% damage) | damage to test plants, Ca [35]: 0 (0 is 0 to 20% damage) | damage to test plants, Ct [36]: 0 (0 is 0 to 20% damage) | damage to test plants, Ip [37]: 0 (0 is 0 to 20% damage) | damage to test plants, Pi [38]: 0 (0 is 0 to 20% damage) | damage to test plants, Rp [39]: 0 (0 is 0 to 20% damage) | damage to test plants, Sy [40]: 0 (0 is 0 to 20% damage) | damage to test plants, Sb [41]: 3

Reference: EP0013144A1, “Substituted diphenylamine derivatives, compositions and herbicidal uses thereof, and processes for their preparation” (ICI AUSTRALIA LIMITED, priority 1978, dated 1980)
